Tested on: retinal ganglion cells (RGCs)
Assay: Optic nerve axotomy model of glaucoma: RGC survival in vivo
Design: species or system Long-Evans rats
Source text: As a model for studying treatment of glaucoma, damaged (axotomized) retinal ganglion cells were employed. Specifically, transection of the optic nerve close to the cell body causes apoptotic death of retinal ganglion cells (RGCs), similar to that found in glaucoma. […] Three days later, the left optic nerve was intraorbitally transected 1 mm from the globe. One day after axotomy, no remarkable change in the fluorescence pattern of RGCs was seen compared to that of controls. RGC density, as assessed by the number of fluorescently-labeled cells, began to decline between 4 and 7 days post axotomy. By 14 days, a substantial number of fluorescently-labeled RGCs appeared to have been lost. Morphologically, in whole-mounted retinas stained with cresyl violet, ganglion cell layer (GCL) of unlesioned control retinas manifest no apoptotic profiles or pyknotic nuclei. In contrast, by 10 days after axotomy, multiple degenerating cell bodies with pyknotic nuclei were apparent in the GCL, and the cell density in this layer appeared to be greatly diminished. When hydroxystilbamidine fluorescence in the GCL was quantified, in unlesioned control retinas the mean RGC density was 2533±104 cells/mm^2 (mean±SD). Within 14 days of axotomy, the mean RGC density decreased to 348±107 (14% of control).
One day after axotomy, activated (di-phosphorylated) p38 was visualized by immunocytochemistry in the RGC layer, but not in control retinas. By Western blotting, phosphorylated p38 was first detected 12 hours after axotomy and reached a maximum at 24 hours before decreasing. SB 203580 was administered intravitreally at the time of axotomy, and repeated at 5 days and 10 days.
Retrograde labeling of retinal ganglion cells. Adult male Long-Evans rats weighing 200 to 250 g were obtained from a local breeder and, for all experimental manipulations, were anesthetized with 1-2% isoflurane and 70% N2O. RGCs were retrogradely labeled with hydroxystilbamidine (Molecular Probes, Eugene, Oreg., also known as Fluoro-Gold™) to allow accurate counting of cell bodies as described in Vorwerk et al., Invest. Ophthalmol. Vis. Sci. 40:813-816. Rats were anesthetized and placed in a small stereotactic instrument. The skull was exposed and kept dry. The bregma was identified and marked, and a small window was drilled above the right hemisphere, leaving the dura intact.
Axotomy. Optic nerve axotomy was performed on the left eye 4 days after retrograde labeling. After incision of the dorsolateral conjunctiva, the lateral extraocular muscle was transected, and the optic nerve was exposed under a stereoscopic microscope. The optic nerve was then transected at a distance of about 1 mm from the eye bulb. During the operation, care was taken to avoid damage to the retinal blood supply.
Drug application. Intravitreal injections were carried out using a 33-gauge needle attached to a 25 μl syringe following pupil dilation with 1% atropine sulfate. The tip of the needle was inserted through the dorsal limbus of the eye under stereomicroscopic visualization. Injections were completed over a period of 1 min. Intravitreal injections of SB 203580 (Calbiochem, San Diego, Calif.), MK801 (Research Biochemicals International, Natick, Mass.) or control solutions (as an equal volume of saline diluent) were performed on operated eyes immediately after axotomy, and repeated 5 and 10 days post axotomy.
Quantification of axotomized RGC survival and histology. […]

Q: For `C[S+]([O-])c1ccc(-c2nc(-c3ccc(F)cc3)c(-c3ccncc3)[nH]2)cc1` (stereo not shown) [SB 203580, 4-(4-fluorophenyl)-2-(4-methylsulfinylphenyl)-5-(4-pyridyl)-1H-imidazole], which “neuroprotection of RGCs” value (0.2 nmol intravitreal (corresponding to 1.6 μM), 14 days post axotomy) is on record?
A: significant degree of neuroprotection

Q: What about the “number of surviving RGCs” value (10 nmol intravitreal, 14 days post axotomy, axotomy alone 348, control 2,511) of the same compound?
A: 1,347 cells/mm^2

Q: And the “number of surviving RGCs” value (14 days post axotomy, intravitreal at axotomy, 5 and 10 days, dose series)?
A: increased the number of surviving RGCs in a dose-dependent manner

Q: And the “RGC protection on addition to MK801, compared with MK801 alone” value (SB 203580 added to MK801, intravitreal, axotomy)?
A: did not offer further protection
